The source of these data is patent publication US11602510B2, “Agent for use in the treatment of dyslipidemia” (Flexopharm Brain GMBH & Co. KG, priority 2017, dated 2023).

The subject of one test is LDL receptor. Kind of test: LDL receptor expression by reverse transcriptase-polymerase chain reaction in the liver. The format is in vivo. To be noted: RT-PCR in the liver following treatment, FIG. 8.
Another test deals with HMG-CoA synthase. Nature of the test: HMG-CoA synthase mRNA expression by reverse transcriptase-polymerase chain reaction. The format is in vivo. To be noted: RT-PCR, FIG. 5.
The next test concerns PCSK9. Nature of the test: PCSK9 expression by reverse transcriptase-polymerase chain reaction. The format is in vivo. To be noted: RT-PCR, FIG. 7.
Test [1] deals with patients whose LDL cholesterol level had been adjusted to a stable level by atorvastatin. Kind of test: Patient study: propionate added to stable atorvastatin treatment, LDL value. The following applies: for LDL value / LDL cholesterol level (in words): 2×500 mg propionate for more than eight weeks in addition to atorvastatin, five patients, FIG. 9. The format is in vivo, human. The protocol:
The decrease appears to be greatest in patients showing the highest initial LDL value,
FIG. 10 is a block diagram showing the result of a patient study. On the left, the diagram indicates the averaged initial value of the patients stable through administration of atorvastatin, on the right the averaged LDL value of the patients after taking 2×500 mg of propionate daily for at least eight weeks.
The patient study attests to the positive influence of 2×500 mg of sodium propionate in addition to atorvastatin.

For the next test, the system named is patients. The following applies: high doses, cited from earlier work.
Another test concerns pigs. The following applies: comparatively higher doses; cited from earlier work.
Test [2] has as its system patients with dyslipidemia. Kind of test: LDL cholesterol in patients with dyslipidemia treated with propionic acid. It counts as in vivo, human. The following applies: n=24, initial LDL cholesterol >110 mg/dl, after 2-6 months of treatment, FIG. 4.
Test [3] deals with hypercholesterolemic mouse model. Nature of the test: LDL cholesterol in the hypercholesterolemic mouse model (high fat diet). It counts as in vivo. The source says: HF: High Fat (60 KJ % fat content); PA: Propionic Acid. […] HFD: High Fat Diet; PA: Propionic Acid.
The test system of the next test is HMG-CoA reductase. Kind of test: HMG-CoA reductase expression by reverse transcriptase-polymerase chain reaction. The format is in vivo. The following applies: RT-PCR, FIG. 6.
Test [4] concerns rats with normal and cholesterol-rich diets. To be noted: cited from earlier work.
The test system of the next test is rats. The following applies: oral and rectal administration of high doses; cited from earlier work.

The structures appear in SMILES notation. Entries after “also recorded” stand apart in the source; their conditions may differ. Like-named read-outs stand apart in the source and are kept apart here.

Turning to `CC(C)c1c(C(=O)Nc2ccccc2)c(-c2ccccc2)c(-c2ccc(F)cc2)n1CC[C@@H](O)C[C@@H](O)CC(=O)O` [atorvastatin, reference compound], the “expression of the LDL receptor” value in the test on LDL receptor is recorded as “Neither the propionic acid nor the atorvastatin has an effect”. Moreover, the “expression of HMG-CoA synthase at mRNA level” value in the test with HMG-CoA synthase is given as “but not by atorvastatin”. Moreover, in the test with PCSK9, the “expression of PCSK9” value is given as “increased expression; also recorded: increase in PCSK9 expression”.
`CCC(=O)O` [propionic acid, Propionic acid]: the “reduction of the LDL value on average” value in [1] (2×500 mg propionate daily for at least eight weeks on top of stable atorvastatin, FIG. 10) is about 40%. In [1], the “LDL value / LDL cholesterol level (in words)” value is on record as “the LDL value was reduced”. In the test on patients (one case), the serum cholesterol level entry is recorded as “slight reduction”. Besides, the “HDL serum cholesterol concentration” value in the test with patients (second case) was “increased”. Also, in the test on pigs, the “cholesterol concentration in back fat” value is given as “significantly higher cholesterol concentration”. In addition, the “cholesterol content in the liver” value in the test on pigs is listed as “slight increase”. Moreover, the total cholesterol result in the test with pigs is reported as “reduced total cholesterol”. Also, the “expression of the LDL receptor” value in the test on LDL receptor is on record as “Neither the propionic acid nor the atorvastatin has an effect”. Besides, the “cholesterol-lowering effect (LDL cholesterol)” value in test [2] is listed as “cholesterol-lowering effect”. The “expression of HMG-CoA synthase at mRNA level” value is given as “negatively regulated; also recorded: reduced expression” in the test on HMG-CoA synthase and “significantly down-regulated; also recorded: much more pronounced than that of atorvastatin” with HMG-CoA synthase (listed as Propionate). Also, the LDL cholesterol result in test [3] (propionate alone, High Fat (60 KJ % fat content), FIG. 2) is “reduction of LDL cholesterol”; in test [3] (propionic acid additionally administered to atorvastatin, High Fat Diet, FIG. 3) it was “trend towards further reduction of LDL cholesterol”. Moreover, the “expression of PCSK9” value in the test with PCSK9 was “no influence”; in the test on PCSK9 (listed as Propionates), “do not have an effect”. The “expression of HMG-CoA reductase” value was “negatively regulated; also recorded: reduced expression” in the test on HMG-CoA reductase and “significantly down-regulated” with HMG-CoA reductase (listed as Propionate).
On to `CCC(=O)[O-].[Na+]` [sodium propionate], for which, in test [1], the “LDL value / LDL cholesterol level (in words)” value is reported as “further significantly reduced”. The total cholesterol entry in test [4] (rats consuming cholesterol-rich food, about 100 mg per day) is given as “significant reduction in total cholesterol”; in test [4] (rats fed a normal diet) it was “practically no effect”. Also, the liver cholesterol levels entry in the test with rats is on record as “only insignificantly”.
